Measured values as given in US7507739B2, “6-[(substituted)phenyl]triazolopyrimidines as anticancer agents” (Wyeth, priority 2003, dated 2009).
Like-named read-outs stand apart in the source and are kept apart here.

Experiments:
KB cells = test: MTS cytotoxicity test with KB cells; type: cell-based; settings: Homo sapiens, read-out: IC50 KB
Excerpt: (§1) Human cancer cell lines, unless otherwise noted, are obtained from the American Type Culture Collection (Rockville, Md.). The following drug-sensitive parental cell lines, and their derived drug-resistant counterparts, are obtained from the originators as listed: (a) S1 (parental line from a subclone of human colon carcinoma line LS174T) and derived S1-M1-3.2 (herein called S1-M1) which expresses the MXR drug transporter protein, are provided by Dr. L. Greenberger, Wyeth Research (Rabindran, S. K., He, H., Singh, M., Brown, E., Collins, K. I., Annable, T., and Greenberger, L. M. Reversal of a novel multidrug resistance mechanism in human colon carcinoma cells by fumitremorgin C. Cancer Res., 58:5850-5858,1998); (b) parental HL-60 human promyelocytic leukemia line and derived HL-60/ADR, which expresses the MRP1 drug transporter protein, are provided by Dr. M. Center, University of Kansas (McGrath, T., and Center, M. S. Adriamycin resistance in HL60 cells in the absence of detectable P-glycoprotein. Biochem. Biophys. […] J. Biol. Chem., 261: 7762-7770,1986) via Dr. L. Greenberger, Wyeth Research.
(§2) The assay, which is sold in kit form by Promega (Madison, Wis.; CellTiter 96 AQueous Non-Radioactive Cell Proliferation Assay), is based on the conversion by viable cells, but not by dead cells, of the tetrazolium salt, MTS (3-(4,5-dimethylthiazol-2-yl)-5-(3-carboxymethoxyphenyl)-2-(4-sulphophenyl)-2H-tetrazolium, inner salt), into a water-soluble colored formazan which is detected by spectrophotometry. Compounds are tested at nine concentrations, in order to determine IC50 values. For the test procedure, cells are harvested by trypsinization (or, in the case of non-adherent cells, by simple resuspension), washed, counted and distributed to wells of 96-well flat-bottom microtiter plates at 1000 cells per well in 200 μL of medium. In addition, one row of wells on a separate plate received cells as above (“time 0” plate). All plates are incubated at 37° in humidified 5% CO2 in air for about 24 hr.
(§3) On day 2, compounds for test are diluted and added to wells. Compounds are dissolved in DMSO at 10 mg/mL. For each compound, nine serial 2-fold dilutions are prepared in DMSO. Ten μL of each dilution in DMSO is transferred to 100 μL of medium, mixed well, and then 5 μL of this dilution is transferred in quadruplicate to wells containing cells. […] Plates are returned to the incubator for three days. At the time of drug addition to the experimental plates, the MTS assay is run on the “time 0” plate. This produced the “time 0 MTS value” which is related to the number of viable cells per well at the time of drug addition.
(§4) After three days of culture with test compounds (day 5 overall), the MTS assay is done on all wells of the experimental plates. The absorbance values of the quadruplicate sample wells are averaged and divided by the average of the “time 0” values. […] The nine values for each compound are plotted against concentration, and the concentration that produced a relative color yield half way between the maximum and minimum is taken as the IC50 value.
(§5) The KB lines express different amounts of the P-glycoprotein (MDR1) membrane pump which produces resistance to the action of many cytotoxic compounds, including paclitaxel and vincristine. The parental KB line expresses no P-glycoprotein, KB-8-5 expresses moderate levels of the protein, and KB-V1 expresses very high levels.

KB-8-5 cells = test: MTS cytotoxicity test with KB-8-5 cells (moderate P-glycoprotein); type: cell-based, human; settings: for IC50: Homo sapiens, read-out: IC50 KB 8.5; for Ratio 8.5/KB: IC50 on KB 8.5 cells/IC50 on KB cells
Excerpt: as §1, §2, §3, §4, §5

KB-V1 cells = test: MTS cytotoxicity test with KB-V1 cells (very high P-glycoprotein); type: cell-based, human; settings: for IC50: Homo sapiens, KB-V1 cells, MTS; for Ratio VI/KB: IC50 on KB VI cells/IC50 on KB cells; for recognition by P-glycoprotein: inferred from IC50 on KB-V1 compared to parental KB line
Excerpt: as §1, §2, §3, §4, §5

HL-60 cells = test: MTS cytotoxicity test with HL-60 cells; type: cell-based; settings: Homo sapiens
Excerpt: as §1, §2, §3, §4
HL-60/ADR cells overexpress the multidrug resistance protein MRP1 which mediates resistance to some chemotherapeutics (Gottesman, M. M., Fojo, T., and Bates, S. E. Multidrug resistance in cancer: role of ATP-dependent transporters. Nature Rev. Cancer, 2: 48-58, 2002). The IC50 values of representative examples of this invention, as well as reference compounds, on HL-60/ADR are compared to values on the sensitive parental HL-60 line.

microtubules = test: Competitive binding test, [3H]paclitaxel; set-up: species or system bovine; settings: [3H]paclitaxel 2.1 μM, competitor 20 μM (5 μM for unlabeled paclitaxel)
Experimental: Medium is RPMI-1640 with L-glutamine, supplemented with 10% heat-inactivated fetal calf serum, 100 units/ml penicillin, and 100 μg/ml streptomycin (Gibco, Grand Island, N.Y.). Microtubule-associated protein (MAP)-rich tubulin, containing about 70% tubulin and 30% MAPs (#ML113), and highly purified tubulin (>99% pure, #TL238), both from bovine brain, are obtained from Cytoskeleton, Inc., Denver, Colo. PEM buffer (80 mM piperazine-N,N′-bis[2-ethanesulfonic acid], pH 6.9, 1 mM ethylene glycol-bis(β-aminoethyl ether)-N,N,N′,N′-tetraacetic acid, 1 mM magnesium chloride) and guanosine 5′-triphosphate (GTP) are also obtained from Cytoskeleton. [3H]paclitaxel, specific activity 14.7 Ci/mmol, is purchased from Moravek Biochemicals (Brea, Calif.). [^3H]vinblastine, specific activity 9.60 Ci/mmol and MicroSpin G-50 columns are obtained from Amersham Biosciences (Piscataway, N.J.). […] Other reagents are obtained from Sigma (St. Louis, Mo.).
The binding of examples of this invention to highly purified tubulin is studied by competitive inhibition methods. […] To study possible competition at the taxane site, on the other hand, polymerized tubulin (microtubules) is used because paclitaxel binds preferentially to microtubules.
For competition with [^3H]paclitaxel, highly purified tubulin is dissolved in PEM buffer containing 0.75 M glutamate and 25 μM dideoxy-GTP; final protein concentration is 0.25 to 0.35 mg/mL (2.5 to 3.5 μM). These conditions foster the rapid formation of short, stable microtubule polymers (Hamel, E., del Campo, A. A., and Lin, C. M. Stability of tubulin polymers formed with dideoxyguanosine nucleotides in the presence and absence of microtubule-associated proteins. J. Biol. Chem., 259: 2501-2508, 1984). This solution is incubated for 30 min at 37° to allow microtubules to form. Then [^3H]paclitaxel (final concentration of 2.1 μM, 1.2 Ci/mmol) and competitor (final concentration of 20 μM, except 5 μM for unlabeled paclitaxel) are added to aliquots of the polymerized tubulin solution and incubation at 37° is continued for another 30 min. […] The reactions are then centrifuged at top speed in an Eppendorf 5415C microfuge for 20 min at room temperature in order to pellet the microtubule protein. Triplicate aliquots of each supernatant are mixed with scintillation fluid and counted in a liquid scintillation spectrometer. From the amount of radioactivity in the supernatants and the measured total starting radioactivity, the amount of [^3H]paclitaxel bound to pelleted microtubule protein is calculated. The ability of each competitor to inhibit radioligand binding to pelleted protein is expressed as a percent of controls without any competitor.

[1] = HL-60 cells, MTS, read-out: IC50 HL-60

[3H]Paclitaxel binding, percent of control without competitor, Mean (microtubules) [%] | Structure (SMILES) | IC50 (KB cells; KB) [nM] | IC50 (KB-8-5 cells) [nM] | IC50 (KB-V1 cells) [nM] | Ratio VI/KB (KB-V1 cells) | recognition by P-glycoprotein (KB-V1 cells) | IC50 (HL-60 cells; HL-60, read-out: IC50 HL-60) [nM] | IC50 (KB cells; KB cells, MTS) [nM] | IC50 (KB-8-5 cells; KB-8-5 cells, MTS) [nM] | IC50 (HL-60 cells; [1]) [nM] | Ratio 8.5/KB (KB-8-5 cells) | Ratio VI/KB (KB-V1 cells; listed as vincristine) | Ratio VI/KB (KB-V1 cells; listed as paclitaxel)
104 | C[C@H](Nc1c(-c2c(F)cc(OCCCO)cc2F)c(Cl)nc2ncnn12)C(F)(F)F [Example 20, 3-[4-(5-Chloro-7-{[(1S)-2,2,2-trifluoro-1-methylethyl]amino}[1,2,4]triazolo[1,5-a]pyrimidin-6-yl)-3,5-difluorophenoxy]propan-1-ol] | – | – | 73 | – | not recognized at all by P-glycoprotein | – | 57 | 66 | 155 | – | – | –
22 | CC[C@]1(O)C[C@H]2CN(CCc3c([nH]c4ccccc34)[C@@](C(=O)OC)(c3cc4c(cc3OC)N(C=O)[C@H]3[C@@](O)(C(=O)OC)[C@H](OC(C)=O)[C@]5(CC)C=CCN6CC[C@]43[C@@H]65)C2)C1 [Vincristine, reference compound] | – | – | > 1000 | >156 | – | – | 6.4 | 72 | 2.5 | 11 | > 156 | –
35 | CC(=O)O[C@H]1C(=O)[C@@]2(C)[C@H]([C@H](OC(=O)c3ccccc3)[C@]3(O)C[C@H](OC(=O)[C@H](O)[C@@H](NC(=O)c4ccccc4)c4ccccc4)C(C)=C1C3(C)C)[C@]1(OC(C)=O)CO[C@@H]1C[C@@H]2O [Paclitaxel, reference compound] | – | – | > 1000 | >345 | – | – | 2.9 | 56 | 5.7 | 19 | – | > 345
93 | CNCCCOc1cc(F)c(-c2c(Cl)nc3ncnn3c2C2CCCCCC2)c(F)c1.O=C(O)C(F)(F)F [Example 32, 3-[4-(5-Chloro-7-cycloheptyl[1,2,4]triazolo[1,5-a]pyrimidin-6-yl)-3,5-difluorophenoxy]-N-methylpropan-1-amine trifluoroacetic acid salt] | – | – | 108 | 9.9 | show recognition by P-glycoprotein | – | 11 | 15 | 7.1 | – | – | –
91 | OCCCOc1cc(F)c(-c2c(Cl)nc3ncnn3c2C2CCCCCC2)c(F)c1 [Example 30, 3-[4-(5-Chloro-7-cycloheptyl[1,2,4]triazolo[1,5-a]pyrimidin-6-yl)-3,5-difluorophenoxy]propan-1-ol] | – | – | 97 | – | not recognized at all by P-glycoprotein | – | 72 | 127 | 55 | – | – | –
99 | C[C@H](Nc1c(-c2c(F)cc(OCCCN(C)C)cc2F)c(Br)nc2ncnn12)C(F)(F)F [Example 25, 5-Bromo-6-{4-[3-(dimethylamino)propoxy]-2,6-difluorophenyl}-N-[(1S)-2,2,2-trifluoro-1-methylethyl][1,2,4]triazolo[1,5-a]pyrimidin-7-amine] | – | – | 165 | – | not recognized at all by P-glycoprotein | – | 59 | 67 | 104 | – | – | –

Structure (SMILES) | [3H]Paclitaxel binding, percent of control without competitor, Mean (microtubules) [%] | IC50 (KB cells; KB) [nM] | IC50 (KB-8-5 cells) [nM] | IC50 (KB-V1 cells) [nM] | Ratio VI/KB (KB-V1 cells) | recognition by P-glycoprotein (KB-V1 cells) | IC50 (HL-60 cells; HL-60, read-out: IC50 HL-60) [nM] | IC50 (KB cells; KB cells, MTS) [nM] | IC50 (KB-8-5 cells; KB-8-5 cells, MTS) [nM] | IC50 (HL-60 cells; [1]) [nM] | Ratio 8.5/KB (KB-8-5 cells) | Ratio VI/KB (KB-V1 cells; listed as vincristine) | Ratio VI/KB (KB-V1 cells; listed as paclitaxel)
CNCCCOc1cc(F)c(-c2c(Cl)nc3ncnn3c2N[C@@H](C)C(F)(F)F)c(F)c1.Cl [Example 2a, 5-Chloro-6-{2,6-difluoro-4-[3-(methylamino)propoxy]phenyl}-N-[(1S)-2,2,2-trifluoro-1-methylethyl][1,2,4]triazolo[1,5-a]pyrimidin-7-amine hydrogen chloride] | 104 | 24 | 64 | 1120 | 48 | show recognition by P-glycoprotein | 43 | – | – | – | – | – | –
CNCCCOc1cc(F)c(-c2c(Cl)nc3ncnn3c2NCC(F)(F)F)c(F)c1.Cl [Example 3a, 5-Chloro-6-{2,6-difluoro-4-[3-(methylamino)propoxy]phenyl}-N-(2,2,2-trifluoroethyl)[1,2,4]triazolo[1,5-a]pyrimidin-7-amine hydrogen chloride Salt] | 105 | – | – | 2150 | 119 | show recognition by P-glycoprotein | – | 18 | 69 | 26 | 3.8 | – | –
CN(C)CCCOc1cc(F)c(-c2c(Cl)nc3ncnn3c2NCC(F)(F)F)c(F)c1.Cl [Example 4a, 5-Chloro-6-{4-[3-(dimethylamino)propoxy]-2,6-difluorophenyl}-N-(2,2,2-trifluoroethyl)[1,2,4]triazolo[1,5-a]pyrimidin-7-amine Hydrogen chloride Salt] | 104 | – | – | 162 | 7 | show recognition by P-glycoprotein | – | 24 | 58 | 52 | – | – | –
